The source of these data is patent US6492398B1, “Thiazoloindolinone compounds” (SmithKline Beechman Corporation, priority 1999, dated 2002).

Each structure is given as a SMILES string. Converted amounts (≈) assume the structure as drawn.

The term Solubility denotes how much of the substance goes into solution per volume.

The nature of series [1]: Crystallization determinations, solubility comments (Table IV). Type of series: physicochemical. Particulars: for Solubility (Comments): evaporation at 25° C. As to the method: Recrystallization procedures for the respective forms were carried out in each case with the compound being dissolved in the selected solvent and stored at ambient temperature (e.g., 25° C.) until the solvent evaporated. The solid residue was then analyzed by x-ray diffraction.
In the respective anti-solvent determinations, the compound was dissolved in a selected solvent at 25° C., and water or alcohol was added to precipitate a solid. The solid was analyzed by x-ray diffraction.
The compound 4-(((7-oxo-6,7-dihydro-8H-[1,3]thiazolo[5,4-e]indol-8-ylidene)-methyl)amino)-N-(4-pyridinylmethyl) benzenesulfonamide was subjected to crystallization determinations using various solvents and methods of crystallization as described in Table IV below.
In the case of solvent that are relatively non-volatile (DMSO, DMF), complete evaporation was difficult to achieve at […] The presence of solvent was evident as an amorphous hump in the PXRD pattern. Cooling at 5° C. was less successful than the other crystallization approaches as a consequence of the low solubility of 4-(((7 oxo-6,7-dihydro-8H [1,3]thiazolo[5,4-e]indol-8-ylidene)methyl)amino)-N-(4-pyridinylmethyl) benzenesulfonamide under such conditions.

A short description of series [2]: Solubilities in solvent media (PEG 400, transcutol, methanol). Type of series: physicochemical. The text has this: The solubilities (in milligrams per milliliter, mg/mL) of the Form A compound in polyethylene glycol 400, transcutol and methanol solvents are as follows:
The solubilities (in milligrams per milliliter, mg/mL) of Form B in polyethylene glycol 400, transcutol and methanol solvents are as follows: […]

As for `O=C1Nc2ccc3ncsc3c2C1=CNc1ccc(S(=O)(=O)NCc2ccncc2)cc1` [Form A, 4-{[(7-oxo-6,7-dihydro8H-[1,3]thiazolo[5,4-e]indol-8-ylidene)methyl]amino}-N-(4-pyridinylmethyl)-benzenesulfonamide], the Solubility is less than 60 µg/mL in series [1] (organic solvent or mixture, solvent ethyl acetate, cooling at 5° C.); 4.76 mg/mL (≈ 10.3 mM) in series [2] (polyethylene glycol 400, organic solvent or mixture, solvent PEG 400 (polyethylene glycol 400), read-out: Solubility); 0.30 mg/mL (≈ 0.647 mM) in series [2] (solvent methanol); 3.15 mg/mL (≈ 6.8 mM) in series [2] (transcutol, organic solvent or mixture, solvent transcutol, read-out: Solubility). Also, in series [1] (solvent pyridine), the “Solubility (Comments)” value was “low”.
In the case of `O=C1Nc2ccc3ncsc3c2C1=CNc1ccc(S(=O)(=O)NCc2ccncc2)cc1` [Form B, 4-{[(7-oxo-6,7-dihydro-8H-[1,3]thiazolo[5,4-e]indol-8-ylidene)methyl]amino}-N-(4-pyridinylmethyl)-benzenesulfonamide], the “Solubility (Comments)” value in series [1] (solvent ethyl acetate) was “low”. Besides, the Solubility is 4.5 mg/mL (≈ 9.71 mM) in series [2] (solvent PEG 400 (polyethylene glycol 400)), 0.08 mg/mL (≈ 0.173 mM) in series [2] (solvent methanol) and 2.77 mg/mL (≈ 5.98 mM) in series [2] (solvent transcutol).
